Measured values taken from paper PMC12782889, “A GmNRF5a–GmCERK1–GmCAK1 module mediates chitin/chitosan‐triggered immune response in soybean” (Journal of Integrative Plant Biology, 2025).

Key:
AtCERK1^ECD = biological target: T1, AtCERK1^ECD (Arabidopsis thaliana, UniProt A8R7E6); test: Microscale thermophoresis (MST) binding to AtCERK1^ECD (positive control); details: ligand dp6, protein purified from Pichia pastoris, read-out: dissociation constant (K D) with AtCERK1^ECD
T1 construct: ectodomain of AtCERK1 (aa25–224); made in house; host or cells: Pichia pastoris X-33
T1 sequence (A8R7E6 25-224): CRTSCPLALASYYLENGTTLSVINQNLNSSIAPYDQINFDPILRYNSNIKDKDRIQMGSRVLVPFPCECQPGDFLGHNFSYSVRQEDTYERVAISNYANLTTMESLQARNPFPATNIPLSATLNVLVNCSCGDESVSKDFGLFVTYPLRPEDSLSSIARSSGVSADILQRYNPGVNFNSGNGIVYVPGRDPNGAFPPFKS

GmCERK1^ECD = GmCERK1^ECD (Glycine max, UniProt K7N1N7); test: Microscale thermophoresis (MST) binding to GmCERK1^ECD; parameters: species or system soybean (Glycine max); details: ligand dp6, His-tagged protein purified from Pichia pastoris, read-out: dissociation constant (K D) with GmCERK1^ECD
Source text: The ectodomains of GmCERK1, GmNFR5a, and mutants were cloned into the yeast expression vector pPICZαA (Thermo Fisher Scientific, Shanghai, China) through the double digestion and ligation using the restriction endonuclease EcoRI/XbaI (NEB, Suzhou, China) and T4 ligase. Then, the linearized recombinant plasmid pPICZαA‐GmCERK1 and pPICZαA‐GmNFR5a were transformed into P. pastoris X‐33. The positive colonies were selected on YPDS medium (1% w/v yeast extract, 2% w/v peptone, 2% w/v glucose, 2% w/v agar, 100 μg/mL antibiotic Zeocin (Thermo Fisher Scientific)) plates and verified by direct DNA sequencing. Protein expression was carried out initially in BMGY media (100 mM potassium phosphate pH 6.0, 1.34% w/v YNB, 4 × 10^−5% w/v biotin, 1% v/v glycerol) at 28°C with shaking (180 rpm) until the OD600 reached 2.0–6.0. The cell pellet was transferred into BMMY medium (100 mM potassium phosphate pH 6.0, 1.34% w/v YNB, 4 × 10^−5% w/v biotin, 0.5% v/v methanol) and continuously supplied with the addition of 0.5% (v/v) methanol every day for 5 d. […]
GmCERK1^ECD, GmNFR5a^ECD, and all mutants were labeled with a fluorescent dye using the Monolith Protein Labeling Kit RED‐NHS second Generation (MO‐L011). […] The data were analyzed and fitted by plotting ligand concentrations against bound fractions using the MO.Affinity Analysis v3.0.5 software. […]

UGT76G1 = biological target: T2, UGT76G1 (Stevia rebaudiana, UniProt Q6VAB4); test: MST binding to UGT76G1 (negative control protein)
T2 construct: made in house
T2 sequence (Q6VAB4 1-458): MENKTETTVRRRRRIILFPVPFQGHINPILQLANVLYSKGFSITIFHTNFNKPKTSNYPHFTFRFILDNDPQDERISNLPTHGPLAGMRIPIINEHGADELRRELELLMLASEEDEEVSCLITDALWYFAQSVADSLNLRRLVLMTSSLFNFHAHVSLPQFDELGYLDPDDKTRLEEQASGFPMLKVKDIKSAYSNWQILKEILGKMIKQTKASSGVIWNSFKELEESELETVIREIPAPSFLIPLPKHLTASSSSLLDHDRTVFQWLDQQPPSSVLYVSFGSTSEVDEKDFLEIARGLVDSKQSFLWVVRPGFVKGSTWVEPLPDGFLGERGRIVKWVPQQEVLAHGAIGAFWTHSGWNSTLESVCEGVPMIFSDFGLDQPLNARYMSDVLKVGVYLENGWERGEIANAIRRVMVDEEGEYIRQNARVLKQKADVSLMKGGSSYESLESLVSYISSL

GmCERK1 homodimer = test: Co-immunoprecipitation of GmCERK1-GFP with GmCERK1-HA in N. benthamiana; assay type: cell-based, soybean (Glycine max); details: Co-IP; N. benthamiana leaves treated 50 mg/L for 5 min
Experimental: (§1) Nicotiana benthamiana leaves were harvested 48 h post inoculation (hpi) after agroinfiltration. Samples were ground in liquid nitrogen and incubated for 30 min in a lysis buffer (50 mM Tris-HCl pH 8.0, 150 mM NaCl, 1.0% (v/v) NP-40, 0.1% SDS (w/v) and 0.1% protease inhibitor cocktail ([…]; Sigma, St. Louis, MI, USA)). Supernatant was collected by centrifugation at 21,000 g for 15 min and then incubated with GFP-trap beads (item No.: gta-20; Chromotek, Hauppauge, NY, USA) at 4°C for 2 h. The GFP-trap beads were pelleted by centrifugation at 500 g for 2 min and washed with lysis buffer at least four times. Proteins were eluted by boiling the beads in a protein loading buffer for 10 min and detected by immunoblot analysis with anti-GFP (Cat No. M20004; Abmart, Shanghai, China) or anti-HA (Cat No. M20013; Abmart, Shanghai, China).

GmNFR5a homodimer = test: Co-immunoprecipitation of GFP-tagged GmNFR5a with HA-tagged GmNFR5a in N. benthamiana; assay type: cell-based, soybean (Glycine max); details: Co-IP; N. benthamiana leaves treated 50 mg/L for 5 min
Experimental: as §1

[1] = system: GmCERK1-GmCAK1 interaction; test: Co-immunoprecipitation of GmCERK1-GFP with GmCAK1-HA in N. benthamiana; assay type: cell-based, soybean (Glycine max); details: Co-IP; N. benthamiana leaves treated 50 mg/L for 5 min
Experimental: as §1

Chain of GmCERK1^ECD (K7N1N7 entry or part of it): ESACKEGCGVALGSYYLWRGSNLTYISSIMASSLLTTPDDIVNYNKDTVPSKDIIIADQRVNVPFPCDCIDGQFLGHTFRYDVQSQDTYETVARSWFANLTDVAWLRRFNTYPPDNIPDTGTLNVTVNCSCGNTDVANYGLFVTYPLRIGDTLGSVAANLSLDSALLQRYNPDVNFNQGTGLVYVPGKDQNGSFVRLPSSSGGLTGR

| SMILES | Kd (AtCERK1^ECD) [µM] | Kd (GmCERK1^ECD) [µM] | binding to UGT76G1 (UGT76G1) | GmCERK1-GFP / GmCERK1-HA interaction (homodimer) (GmCERK1 homodimer) | GmNFR5a homodimer formation (GmNFR5a homodimer) | interaction between GmCERK1 and GmCAK1 [1] |
| --- | --- | --- | --- | --- | --- | --- |
| N[C@H]1[C@H](O[C@H]2[C@H](O)[C@@H](N)[C@H](O[C@H]3[C@H](O)[C@@H](N)[C@H](O[C@H]4[C@H](O)[C@@H](N)[C@H](O[C@H]5[C@H](O)[C@@H](N)[C@H](O[C@H]6[C@H](O)[C@@H](N)C(O)O[C@@H]6CO)O[C@@H]5CO)O[C@@H]4CO)O[C@@H]3CO)O[C@@H]2CO)O[C@H](CO)[C@@H](O)[C@@H]1O (stereo partly drawn) [CSOS (dp6), chitosan oligosaccharide] | 2730 ± 430 | 10600 ± 1460 | cannot bind | strong interaction | strong homodimer | diminished |
| CC(=O)N[C@H]1[C@H](O[C@H]2[C@H](O)[C@@H](NC(C)=O)[C@H](O[C@H]3[C@H](O)[C@@H](NC(C)=O)C(O)O[C@@H]3CO)O[C@@H]2CO)O[C@H](CO)[C@@H](O[C@@H]2O[C@H](CO)[C@@H](O[C@@H]3O[C@H](CO)[C@@H](O[C@@H]4O[C@H](CO)[C@@H](O)[C@H](O)[C@H]4NC(C)=O)[C@H](O)[C@H]3NC(C)=O)[C@H](O)[C@H]2NC(C)=O)[C@@H]1O (stereo partly drawn) [CTOS (dp6), chitin oligosaccharide] | 660 ± 270 | 3250 ± 950 | cannot bind | strong interaction | strong homodimer | diminished |
